Measured values published in BindingDB's records for doi:10.1021/cc1000049 (Chemical Diversity Research Institute, 2010).
“And” between values parts separate entries of the source, which are not always exact repeats. Equal values may be shown once.

The compounds below were run against 5-hydroxytryptamine receptor 6 (Homo sapiens, UniProt P50406) (assay: Radioligand Binding Assay).
Excerpt: Radioligand binding assay using 5-HT6R.

5-hydroxytryptamine receptor 6, sequence (P50406 whole entry): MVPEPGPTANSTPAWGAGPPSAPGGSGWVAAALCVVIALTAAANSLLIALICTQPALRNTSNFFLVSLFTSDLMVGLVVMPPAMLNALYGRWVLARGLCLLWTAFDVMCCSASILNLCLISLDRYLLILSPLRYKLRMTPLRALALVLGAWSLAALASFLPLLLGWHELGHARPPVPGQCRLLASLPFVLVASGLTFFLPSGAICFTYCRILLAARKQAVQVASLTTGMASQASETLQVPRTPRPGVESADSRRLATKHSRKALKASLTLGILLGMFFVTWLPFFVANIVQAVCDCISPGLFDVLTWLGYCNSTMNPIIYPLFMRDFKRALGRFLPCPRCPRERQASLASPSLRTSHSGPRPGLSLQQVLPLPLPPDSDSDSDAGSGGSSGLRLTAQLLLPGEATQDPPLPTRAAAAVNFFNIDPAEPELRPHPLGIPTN

SMILES | IC50 | Ki [nM]
Cc1ccc(S(=O)(=O)c2nnn3c2nc(NCC2CCCO2)c2ccccc23)cc1C (stereo not drawn) [PSTQ Analog, 3{9,21}] | 779 nM | 
CCc1ccccc1Nc1nc2c(S(=O)(=O)c3ccc(C)c(C)c3)nnn2c2ccccc12 [PSTQ Analog, 3{9,31}] | 295 nM | 
Cc1cc(C)c(S(=O)(=O)c2nnn3c2nc(NC(C)C)c2ccccc23)c(C)c1 [PSTQ Analog, 3{10,3}] | 2180 nM | 
CCC(C)Nc1nc2c(S(=O)(=O)c3cc(C)ccc3C)nnn2c2ccccc12 (stereo not drawn) [PSTQ Analog, 3{8,4}] | 35.9 nM | 16.7
Cc1cc(C)c(S(=O)(=O)c2nnn3c2nc(NCC2CCCO2)c2ccccc23)c(C)c1 (stereo not drawn) [PSTQ Analog, 3{10,21}] | 1460 nM | 
Cc1ccc(S(=O)(=O)c2nnn3c2nc(NCCc2ccccc2)c2ccccc23)cc1C [PSTQ Analog, 3{9,9}] | 2010 nM | 
Cc1ccc(S(=O)(=O)c2nnn3c2nc(NC(C)c2ccccc2)c2ccccc23)cc1 (stereo not drawn) [PSTQ Analog, 3{2,20}] | 740 nM | 
O=S(=O)(c1ccccc1)c1nnn2c1nc(NCC1CCCO1)c1cc(Cl)ccc12 (stereo not drawn) [PSTQ Analog, 3{12,21}] | 1800 nM | 
O=S(=O)(c1ccccc1)c1nnn2c1nc(NC1CCCCC1)c1ccccc12 [PSTQ Analog, 3{1,26}] | 10.8 nM | 5.01
Cc1ccc(S(=O)(=O)c2nnn3c2nc(N2CCN(c4ccccn4)CC2)c2ccccc23)cc1C [PSTQ Analog, 3{9,58}] | 1200 nM | 
O=S(=O)(c1ccccc1)c1nnn2c1nc(NCc1cccnc1)c1ccccc12 [PSTQ Analog, 3{1,23}] | 983 nM | 
CCN(Cc1ccccc1)c1nc2c(S(=O)(=O)c3ccc(C)c(C)c3)nnn2c2ccccc12 [PSTQ Analog, 3{9,44}] | 971 nM | 
CN(C)CCN(C)c1nc2c(S(=O)(=O)c3ccccc3)nnn2c2ccccc12 [PSTQ Analog, 3{1,42}] | > 30 nM | 
O=S(=O)(c1ccccc1)c1nnn2c1ncc1ccccc12 [PSTQ Analog, 8] | 5740 nM | 
CC1CCC(Nc2nc3c(S(=O)(=O)c4ccccc4)nnn3c3ccccc23)CC1 (stereo not drawn) [PSTQ Analog, 3{1,28}] | 59.5 nM | 27.6
CCc1ccc(S(=O)(=O)c2nnn3c2nc(NC2CCCCC2C)c2ccccc23)cc1 (stereo not drawn) [PSTQ Analog, 3{3,27}] | 572 nM | 
CC(Nc1nc2c(S(=O)(=O)c3ccc(Cl)cc3)nnn2c2ccccc12)c1ccccc1 (stereo not drawn) [PSTQ Analog, 3{6,20}] | 628 nM | 
CCC(C)Nc1nc2c(S(=O)(=O)c3c(C)cc(C)cc3C)nnn2c2ccccc12 (stereo not drawn) [PSTQ Analog, 3{10,4}] | 964 nM | 
CCc1ccccc1Nc1nc2c(S(=O)(=O)c3ccc(Br)cc3)nnn2c2ccccc12 [PSTQ Analog, 3{7,31}] | 1430 nM | 
Cc1ccc(S(=O)(=O)c2nnn3c2nc(N2CCCCCC2)c2ccccc23)cc1C [PSTQ Analog, 3{9,53}] | 1310 nM | 
CC(C)Nc1nc2c(S(=O)(=O)c3ccccc3)nnn2c2ccccc12 [PSTQ Analog, 3{1,3}] | 107 nM | 49.5
CN(Cc1ccccc1)c1nc2c(S(=O)(=O)c3ccccc3)nnn2c2ccccc12 [PSTQ Analog, 3{1,43}] |  | 7.65
O=S(=O)(c1ccccc1)c1nnn2c1nc(NCc1ccccc1)c1ccccc12 [PSTQ Analog, 3{1,12}] | 381 nM | 

SMILES | IC50 | Ki [nM]
CNc1nc2c(S(=O)(=O)c3ccccc3)nnn2c2ccccc12 [PSTQ Analog, 3{1,2}] | > 300 nM | 
O=S(=O)(c1ccccc1)c1nnn2c1nc(NCc1ccco1)c1ccccc12 [PSTQ Analog, 3{1,22}] |  | 3.54
Cc1ccc(S(=O)(=O)c2nnn3c2nc(NCc2ccccc2C)c2ccccc23)cc1C [PSTQ Analog, 3{9,13}] | 602 nM | 
CN(C)c1nc2c(S(=O)(=O)c3ccccc3)nnn2c2ccccc12 [PSTQ Analog, 3{1,40}] | > 30 nM | 
Cc1ccc(S(=O)(=O)c2nnn3c2nc(NCC2CCCO2)c2ccccc23)cc1 (stereo not drawn) [PSTQ Analog, 3{2,21}] | 1480 nM | 
Cc1cccc(Nc2nc3c(S(=O)(=O)c4ccc(Br)cc4)nnn3c3ccccc23)c1C [PSTQ Analog, 3{7,37}] | 704 nM | 
CCSc1nc2c(S(=O)(=O)c3ccccc3)nnn2c2ccccc12 [PSTQ Analog, 9] | 1050 nM | 
COc1cccc(Nc2nc3c(S(=O)(=O)c4c(C)cc(C)cc4C)nnn3c3ccccc23)c1 [PSTQ Analog, 3{10,33}] | 670 nM | 
O=S(=O)(c1ccccc1)c1nnn2c1nc(NCC1CCCO1)c1ccccc12 (stereo not drawn) [PSTQ Analog, 3{1,21}] | 75.4 nM and 28.4 nM | 13.2
CC1CCCCN1c1nc2c(S(=O)(=O)c3ccccc3)nnn2c2ccccc12 (stereo not drawn) [PSTQ Analog, 3{1,49}] | 42.1 nM | 19.5
Cc1ccc(S(=O)(=O)c2nnn3c2nc(NCc2ccccc2)c2ccccc23)cc1 [PSTQ Analog, 3{2,12}] | 320 nM | 
Cc1cccc(Nc2nc3c(S(=O)(=O)c4c(C)cc(C)cc4C)nnn3c3ccccc23)c1 [PSTQ Analog, 3{10,32}] | 1000 nM | 
CCc1ccccc1Nc1nc2c(S(=O)(=O)c3cc(C)ccc3C)nnn2c2ccccc12 [PSTQ Analog, 3{8,31}] | 770 nM | 
Cc1ccc(S(=O)(=O)c2nnn3c2nc(NCc2ccccc2Cl)c2ccccc23)cc1 [PSTQ Analog, 3{2,13}] | 528 nM | 
O=S(=O)(c1ccccc1)c1nnn2c1nc(NC1CCCC1)c1ccccc12 [PSTQ Analog, 3{1,25}] |  | 12.9
Cc1ccc(S(=O)(=O)c2nnn3c2nc(NC(C)c2ccccc2)c2ccccc23)cc1C (stereo not drawn) [PSTQ Analog, 3{9,20}] | 356 nM | 
Cc1ccc(S(=O)(=O)c2nnn3c2nc(NCC(C)c2ccccc2)c2ccccc23)cc1 (stereo not drawn) [PSTQ Analog, 3{2,10}] | 606 nM | 
O=S(=O)(c1ccccc1)c1nnn2c1nc(NCc1ccccc1Cl)c1ccccc12 [PSTQ Analog, 3{1,13}] | 128 nM | 
COCCOc1nc2c(S(=O)(=O)c3ccccc3)nnn2c2ccccc12 [PSTQ Analog, 10] | 1370 nM | 
CC1CCCCC1Nc1nc2c(S(=O)(=O)c3ccccc3)nnn2c2ccccc12 (stereo not drawn) [PSTQ Analog, 3{1,27}] | 6.17 nM | 2.86
CCC(C)Nc1nc2c(S(=O)(=O)c3ccccc3)nnn2c2ccccc12 (stereo not drawn) [PSTQ Analog, 3{1,4}] | 15.2 nM | 7.04
CCN(Cc1ccccc1)c1nc2c(S(=O)(=O)c3ccccc3)nnn2c2ccccc12 [PSTQ Analog, 3{1,44}] | 164 nM | 
